Patent US20240327417A1, “HETEROCYCLIC COMPOUNDS” (BeiGene Switzerland GmbH, priority 2021, published 2024)

What was measured:
[1] = target: T1, Full length DGKζ (in-house protein M1-V929) (Homo sapiens, UniProt Q13574); test: Biochemical DGK IC50 assay (ADP-Glo, lipid micelle substrate), DGKζ; conditions: 0.5 nM enzyme, 140 μM ATP, 80 μM DAG, 1 hour preincubation, 1 hour reaction, room temperature, read-out: IC50s for DGKζ
T1 construct: His (N); TEV cleavage site (N); made in house; host or cells: Sf9 insect cells (baculovirus, Bac-to-Bac)
T1 sequence (Q13574 1-929 isoform Q13574-4): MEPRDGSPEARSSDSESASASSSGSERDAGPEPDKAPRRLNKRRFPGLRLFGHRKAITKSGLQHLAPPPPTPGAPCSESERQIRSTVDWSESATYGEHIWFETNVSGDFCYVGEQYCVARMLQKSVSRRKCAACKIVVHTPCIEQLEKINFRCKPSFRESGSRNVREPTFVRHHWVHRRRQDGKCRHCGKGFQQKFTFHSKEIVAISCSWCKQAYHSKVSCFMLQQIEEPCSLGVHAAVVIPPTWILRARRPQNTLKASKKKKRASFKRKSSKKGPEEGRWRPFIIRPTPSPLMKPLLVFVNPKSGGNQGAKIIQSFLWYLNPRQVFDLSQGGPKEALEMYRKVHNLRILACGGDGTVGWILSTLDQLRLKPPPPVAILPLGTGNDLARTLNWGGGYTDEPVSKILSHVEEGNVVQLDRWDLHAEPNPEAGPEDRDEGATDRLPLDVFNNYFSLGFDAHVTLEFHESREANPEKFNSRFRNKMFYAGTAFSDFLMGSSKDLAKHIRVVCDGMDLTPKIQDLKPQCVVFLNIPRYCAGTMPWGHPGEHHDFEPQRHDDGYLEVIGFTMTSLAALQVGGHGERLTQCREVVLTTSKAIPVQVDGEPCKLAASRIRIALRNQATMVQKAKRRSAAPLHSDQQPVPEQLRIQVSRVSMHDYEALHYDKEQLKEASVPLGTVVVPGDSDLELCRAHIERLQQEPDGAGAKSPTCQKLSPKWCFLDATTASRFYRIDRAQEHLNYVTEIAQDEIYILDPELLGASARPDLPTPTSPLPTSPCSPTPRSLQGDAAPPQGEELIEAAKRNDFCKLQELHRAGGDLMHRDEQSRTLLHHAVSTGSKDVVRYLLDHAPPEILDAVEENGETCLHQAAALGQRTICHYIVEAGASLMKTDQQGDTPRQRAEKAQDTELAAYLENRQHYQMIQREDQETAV
Method: (§1) Enzymatic reactions of DGKζ, DGKα and DGKδ were performed using ADP-Glo assay with lipid micelle substrate. […] Full length DGKα (D21-10BG, SignalChem) and full length DGKδ (D23-10G, SignalChem) were purchased. Lipid micelle was prepared by dissolving DAG (Sigma, 317505-10MG) and PS (Sigma, P7769-100MG) with chloroform which was firtherly removed by rotary evaporation. The obtained residue was resuspended in buffer containing 25 mM HEPES pH 7.0, 0.5 mM EDTA and 160 mM Octyl β-D glucopyranoside by vigorous mixing and ultrasonic (IID, Scientz).
(§2) The inhibition activities testing for the compound disclosed herein were carried out at room temperature in assay buffer containing 50 mM HEPES, 10 mM MgCl2, 0.01% BSA, 0.1 mM Na3VO4, 0.005% Tween-20 and 0.01 mM CaCl2. Compounds in DMSO were dispensed into wells of a black 384 well plate (Corning 4514) using D300e digital dispenser (Tecan). The ranges of compounds final concentration were 1.55˜10000 nM or 23.3˜150000 nM. 3 μL 2× enzyme solution was added to wells. […] After 1 hour reaction, 5 μL ADP-Glo reagent (Promga V9101) was added and incubated for 40 minutes. 10 μL Kinase Detection reagent was added and incubated for 30 minutes. Luminescence was measured on a microplate reader (PHERAstar FSX, BMG labtech). The IC50s are calculated based on inhibition of enzyme activity in the presence of increasing concentrations of compounds.
Human His-TEV-DGK-zeta-pFastBac1 and human baculovirus samples was generated using the Bac-to-Bac baculovirus expression system (Invitrogen) according to the manufacturer's protocol. The DNA used for expression of DGK-zeta, have SEQ ID Nos: 1. Baculovirus amplification was achieved using infected SF9 cells at 1:2000 virus/cells ratios, and grown for 96 hours at 27° C. post-transfected.
The expression scaled up for each protein was carried out in the […] from CORNING. 4 L of 3×10^6 cells/mL Sf9 cells (Expression System, Invitrogen) grown in SF900™ II SFM insect medium (Expression System) was infected with virus stock at 1:200 virus/cells ratio, and grown for 48 hours at 27° C. post-transfection. The infected cell culture was harvested by centrifugation at 6000 rpm for 15 min 4° C. in a SORVALL LYNX6000 centrifuge. The cell pellets were stored at −80° C.
Full length human DGKζ produced as described above, was purified from Sf9 baculovirus-infected insect cell paste. The cells were lysed using sonication method, and the lysates were clarified by centrifugation.

[2] = target: T2, Full length DGKα (D21-10BG, SignalChem) (Homo sapiens, UniProt P23743); test: Biochemical DGK IC50 assay (ADP-Glo, lipid micelle substrate), DGKα; conditions: 7.5 nM enzyme, 140 μM ATP, 80 μM DAG, 1 hour preincubation, 1 hour reaction, room temperature, read-out: IC50s for DGKα
T2 construct: Full length DGKα (D21-10BG, SignalChem); purchased SignalChem D21-10BG
T2 sequence (P23743 whole entry): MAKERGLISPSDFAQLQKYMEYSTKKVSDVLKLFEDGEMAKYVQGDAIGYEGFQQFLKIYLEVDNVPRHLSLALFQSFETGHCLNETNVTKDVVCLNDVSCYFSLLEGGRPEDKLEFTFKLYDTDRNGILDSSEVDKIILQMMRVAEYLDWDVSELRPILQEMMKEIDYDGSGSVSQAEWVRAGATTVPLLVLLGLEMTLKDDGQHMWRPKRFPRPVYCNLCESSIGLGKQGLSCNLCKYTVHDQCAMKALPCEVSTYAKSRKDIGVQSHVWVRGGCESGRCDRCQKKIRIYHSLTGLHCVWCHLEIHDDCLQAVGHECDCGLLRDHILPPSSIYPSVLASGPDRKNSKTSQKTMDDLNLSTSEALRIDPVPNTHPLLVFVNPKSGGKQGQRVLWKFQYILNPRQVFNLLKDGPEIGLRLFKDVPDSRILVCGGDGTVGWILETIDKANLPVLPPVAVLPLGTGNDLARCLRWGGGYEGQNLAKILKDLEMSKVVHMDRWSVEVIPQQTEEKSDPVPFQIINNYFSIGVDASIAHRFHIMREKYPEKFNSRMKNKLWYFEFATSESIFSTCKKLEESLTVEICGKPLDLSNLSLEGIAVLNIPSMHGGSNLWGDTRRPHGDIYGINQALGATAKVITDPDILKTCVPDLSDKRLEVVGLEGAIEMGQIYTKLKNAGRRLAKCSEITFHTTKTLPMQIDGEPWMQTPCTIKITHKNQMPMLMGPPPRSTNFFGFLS
Method: as §1, §2

| Structure (SMILES) | IC50 [1] [nM] | IC50 [2] [nM] |
| --- | --- | --- |
| CC[C@@H]1CN(c2cc(=O)n(C)n3cc(C=NOC)nc23)[C@@H](C)CN1C(C)c1ccc2nccnc2c1 (single isomer, unassigned) [Compound A9d] | > 10000 | 211 |
| CC[C@H]1CN(C(C)c2ccc(OC(C)C)nc2)[C@H](CC)CN1c1cc(=O)n(C)n2cc(CC#N)nc12 (single isomer, unassigned) [Compound A45a] | 8 | 941 |
| CC[C@H]1CN(C(C)c2ccc3nc(C)sc3n2)[C@H](CC)CN1c1cc(=O)n(C)n2cc(C=NOC)nc12 (single isomer, unassigned) [Compound A124bc] | 8100 | 78 |
| CC[C@H]1CN(C(C)c2ccc(OC)cc2)[C@H](CC)CN1c1cc(=O)n(C)n2cc(CC#N)nc12 (stereo partly drawn) [Compound A72, 2-(8-((2S,5R)-2,5-diethyl-4-(1-(4-methoxyphenyl)ethyl)piperazin-1-yl)-5-methyl-6-oxo-5,6-dihydroimidazo[1,2-b]pyridazin-2-yl)acetonitrile] | 76 | 23 |
| CC[C@H]1CN(C(C)c2ccc3nccnc3c2)[C@H](CC)CN1c1cc(=O)n(C)n2cc(CC#N)nc12 (single isomer, unassigned) [Compound A14a] | 6 | 217 |
| CC[C@H]1CN(C(C)c2ccc(C3CC3(F)F)nc2)[C@H](CC)CN1c1cc(=O)n(C)n2cc(CC#N)nc12 (single isomer, unassigned) [Compound A70b] | 886 | 466 |
| Cc1cnc2ccc(C(C)N3C[C@H](C)N(c4cc(=O)n(C)n5cc(CC#N)nc45)C[C@H]3C)cc2n1 (single isomer, unassigned) [Compound A2a] | 7400 | 26800 |
| CC[C@@H]1CN(c2cc(=O)n(C)n3cc(CC#N)nc23)[C@@H](C)CN1C(C)c1ccc(C(F)(F)F)cc1F (single isomer, unassigned) [Compound A17a] | 108 | 171 |
| CC(c1ccc2nccnc2c1)N1C[C@H](C)N(c2cc(=O)n(C)n3cc(C[S+](C)[O-])nc23)C[C@H]1C (stereo partly drawn) [Compound A10, 8-((2S,5R)-2,5-dimethyl-4-(1-(quinoxalin-6-yl)ethyl)piperazin-1-yl)-5-methyl-2-((methylsulfinyl)methyl)imidazo[1,2-b]pyridazin-6(5H)-one] | > 10000 | > 10000 |
| CC[C@@H]1CN(c2cc(=O)n(C)n3cc(COC)nc23)[C@@H](C)CN1C(C)c1ccc(C(F)(F)F)cc1F (single isomer, unassigned) [Compound A16a] | 1230 | 4650 |
| CC(c1ccc2nccnc2c1)N1C[C@H](C)N(c2cc(=O)n(C)n3cc(CC#N)nc23)C[C@H]1C (single isomer, unassigned) [Compound A1b] | > 10000 | 2750 |
| CC[C@H]1CN(C(C)c2ccc(C(C)(F)F)nc2)[C@H](CC)CN1c1cc(=O)n(C)n2cc(CC#N)nc12 (single isomer, unassigned) [Compound A90b] | 802 | 386 |
| CC(c1ccc2c(c1)OC(C)(C)CO2)N1C[C@H](C)N(c2c(F)c(=O)n(C)n3cc(CC#N)nc23)C[C@H]1C (single isomer, unassigned) [Compound A26b] | 2140 | 2110 |
| CC#CCc1cn2c(n1)c(N1C[C@@H](CC)N(C(C)c3ccc4nc(C)sc4c3F)C[C@@H]1CC)cc(=O)n2C (single isomer, unassigned) [Compound A116a] | 132 | 118 |
| [2H]C([2H])([2H])c1nc2ccc(C(C)N3C[C@H](CC)N(c4cc(=O)n(C)n5cc(CC#N)nc45)C[C@H]3CC)cc2s1 (single isomer, unassigned) [Compound A96a] | 33 | 54 |
| CC[C@@H]1CN(c2cc(=O)n(C)n3cc(CC#N)nc23)[C@@H](C)CN1C(C)c1ccc(C2CC2)nc1 (single isomer, unassigned) [Compound A43b] | > 10000 | 1490 |
| CC[C@H]1CN(C(C)c2ccc(C3CC3)nc2)[C@H](CC)CN1c1c(C#N)c(=O)n(C)n2cc(CC#N)nc12 (single isomer, unassigned) [Compound A75a] | 276 | 420 |
| CC(c1ccc2c(c1)OC(C)(C)CO2)N1C[C@H](C)N(c2c(C#N)c(=O)n(C)n3cc(CC#N)nc23)C[C@H]1C (single isomer, unassigned) [Compound A27a] | 3 | 2250 |
| CC[C@H]1CN(C(C)c2ccc(F)cc2C(F)F)[C@H](CC)CN1c1cc(=O)n(C)n2cc(CC#N)nc12 (stereo partly drawn) [Compound A34, 2-(8-((2S,5R)-4-(1-(2-(difluoromethyl)-4-fluorophenyl)ethyl)-2,5-diethylpiperazin-1-yl)-5-methyl-6-oxo-5,6-dihydroimidazo[1,2-b]pyridazin-2-yl)acetonitrile] | 14 | 3510 |
| CC[C@H]1CN(C(C)c2ccc3nc(C)sc3n2)[C@H](CC)CN1c1c(F)c(=O)n(C)n2cc(CC#N)nc12 (single isomer, unassigned) [Compound A82b] | 1050 | 233 |
| CC[C@H]1CN(C(C)c2ccc3nc(C4CC4)sc3n2)[C@H](CC)CN1c1cc(=O)n(C)n2cc(CC#N)nc12 (single isomer, unassigned) [Compound A109a] | 1800 | 1490 |
| [2H]C([2H])([2H])n1c(=O)cc(N2C[C@@H](CC)N(C(C)c3ccc4nc(C)sc4c3)C[C@@H]2CC)c2nc(CC#N)cn21 (single isomer, unassigned) [Compound A94a] | 24 | 108 |
| CC[C@H]1CN(C(C)c2ccc(F)cc2OC)[C@H](CC)CN1c1cc(=O)n(C)n2cc(CC#N)nc12 (stereo partly drawn) [Compound A32, 2-(8-((2S,5R)-2,5-diethyl-4-(1-(4-fluoro-2-methoxyphenyl)ethyl)piperazin-1-yl)-5-methyl-6-oxo-5,6-dihydroimidazo[1,2-b]pyridazin-2-yl)acetonitrile] | 110 | 6420 |
| Cc1cnc2ccc(C(C)N3C[C@H](C)N(c4c(C#N)c(=O)n(C)n5cc(CC#N)nc45)C[C@H]3C)cc2n1 (stereo partly drawn) [Compound A23, 2-(cyanomethyl)-8-((2S,5R)-2,5-dimethyl-4-(1-(3-methylquinoxalin-6-yl)ethyl)piperazin-1-yl)-5-methyl-6-oxo-5,6-dihydroimidazo[1,2-b]pyridazine-7-carbonitrile] | 39 | 2280 |
| CCC(c1ccc(C(F)(F)F)cc1)N1C[C@H](CC)N(c2cc(=O)n(C)n3cc(CC#N)nc23)C[C@H]1CC (single isomer, unassigned) [Compound A77b] | 1940 | 454 |
| CC[C@@H]1CN(c2cc(=O)n(C)n3cc(CC#N)nc23)[C@@H](C)CN1C(C)c1ccc2nc(C)sc2c1 (stereo partly drawn) [Compound A55, 2-(8-((2S,5R)-5-ethyl-2-methyl-4-(1-(2-methylbenzo[d]thiazol-6-yl)ethyl)piperazin-1-yl)-5-methyl-6-oxo-5,6-dihydroimidazo[1,2-b]pyridazin-2-yl)acetonitrile] | 108 | 789 |
| COc1cnc2ccc(C(C)N3C[C@H](C)N(c4cc(=O)n(C)n5cc(CC#N)nc45)C[C@H]3C)cc2n1 (stereo partly drawn) [Compound A20, 2-(8-((2S,5R)-4-(1-(3-methoxyquinoxalin-6-yl)ethyl)-2,5-dimethylpiperazin-1-yl)-5-methyl-6-oxo-5,6-dihydroimidazo[1,2-b]pyridazin-2-yl)acetonitrile] | 18 | 1020 |
| CC[C@H]1CN(C(CCOC)c2ccc3nc(C)sc3c2)[C@H](CC)CN1c1cc(=O)n(C)n2cc(CC#N)nc12 (single isomer, unassigned) [Compound A102a] | 46 | 378 |
| CC[C@@H]1CN(c2c(C#N)c(=O)n(C)n3cc(CC#N)nc23)[C@@H](C)CN1C(C)c1ccc(C2CC2)nc1 (single isomer, unassigned) [Compound A74a] | 166 | 682 |
